Measurements reported in patent publication US20160333071A1 (THE TRUSTEES OF COLUMBIA UNIVERSITY IN THE CITY OF NEW YORK, priority 2014, published 2016).

Tested on: endocardial tissue slabs (incorporating the construct injection site)
Set-up: species or system dog

In the case of `NC1=N[C@H](O)[C@H]2[C@H]3O[C@]4(O)O[C@@H]([C@@H](O)[C@@]2(N1)[C@@H]4O)[C@]3(O)CO` [Tetrodotoxin, tetrodotoxin], the “effect on rate of isoproterenol-enhanced rhythms” value is reported as “reductions in rate”.

With `COc1cc2c(cc1OC)CC(=O)N(CCCN(C)C[C@H]1Cc3cc(OC)c(OC)cc31)CC2` [ivabradine] the “effect on rate of isoproterenol-enhanced rhythms” value was “reductions in rate”.
